Assay: Polymer solubility in pH 6.8 buffer (visual inspection)
Method: A general workflow for evaluating cellulose ester derivatives for ASD applications can include evaluating polymer solubility, nucleation time, and surface tension. Polymer solubility was evaluated by examining solubility in pH 6.8 buffer and organic solvents. Nucleation induction time was measured using 9 different polymers and 3 model therapeutic compounds. Surface tension was determined by correlating surface tension and induction time.

CA320S Glutarate [CA320GA]
Water solubility (in words): water-soluble
